In PubChem BioAssay (NCI):
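Briefly, cells in 96-well plates were exposed to five compound concentrations for 48 h, and endpoints were estimated by linear interpolation. The concentration for full growth arrest is given as TGI.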

Key:
Test in all cases: inhibition of tumour cell growth, NCI panel, 48 h
[1] = test system: SF-295 CNS
[2] = test system: HCT-15 colon
[3] = test system: MALME-3M melanoma
[4] = test system: RXF 393 renal
[5] = test system: HCT-116 colon
[6] = test system: 786-0 renal
[7] = test system: ACHN renal
[8] = test system: SNB-19 CNS
[9] = test system: SK-MEL-28 melanoma
[10] = test system: A549 NSCLC
[11] = test system: SK-OV-3 ovarian
[12] = test system: CAKI-1 renal
[13] = test system: MDA-MB-435
[14] = test system: CCRF-CEM leukemia
[15] = test system: UACC-62 melanoma
[16] = test system: M14 melanoma
[17] = test system: HOP-62 NSCLC
[18] = test system: BT-549 breast
[19] = test system: LOX IMVI melanoma
[20] = test system: NCI-H23 lung
[21] = test system: MCF7 breast
[22] = test system: OVCAR-4 ovarian
[23] = test system: HT29 colon
[24] = test system: T-47D breast
[25] = test system: SR leukemia
[26] = test system: UACC-257 melanoma
[27] = test system: SF-539 CNS
[28] = test system: UO-31 renal
[29] = test system: OVCAR-5 ovarian
[30] = test system: RPMI-8226 leukemia
[31] = test system: COLO 205 colon
[32] = test system: MOLT-4 leukemia
[33] = test system: SN12C renal
[34] = test system: OVCAR-8 ovarian
[35] = test system: SK-MEL-2 melanoma
[36] = test system: HS 578T breast
[37] = test system: NCI-H522 lung
[38] = test system: SK-MEL-5 melanoma
[39] = test system: HL-60(TB) leukemia
[40] = test system: SNB-75 CNS
[41] = test system: SW-620 colon
[42] = test system: TK-10 renal
[43] = test system: HOP-92 NSCLC
[44] = test system: SF-268 CNS
[45] = test system: NCI/ADR-RES ovarian
[46] = test system: NCI-H460 lung
[47] = test system: DU-145 prostate
[48] = test system: NCI-H226 lung
[49] = test system: MDA-MB-231 breast
[50] = test system: PC-3 prostate
[51] = test system: KM12 colon
[52] = test system: U251 CNS
[53] = test system: A498 renal
[54] = test system: IGROV1 ovarian
[55] = test system: EKVX NSCLC
[56] = test system: K-562 leukemia
[57] = test system: OVCAR-3 ovarian

CCN(CC)CCCNc1ccc([N+](=O)[O-])c2nc3ccc(OC)cc3c(N)c12
TGI [1]: 3.64 µM
TGI [2]: 3.15 µM
TGI [3]: > 10 µM
TGI [4]: > 10 µM
TGI [5]: 2.49 µM
TGI [6]: 2.9 µM
TGI [7]: > 10 µM
TGI [8]: > 6.29 µM
TGI [9]: > 10 µM
TGI [10]: 3.61 µM
TGI [11]: > 5.48 µM
TGI [12]: > 10 µM
TGI [13]: 3.12 µM
TGI [14]: 5.71 µM
TGI [15]: > 10 µM
TGI [16]: > 6.1 µM
TGI [17]: > 10 µM
TGI [18]: 2.9 µM
TGI [19]: 3.37 µM
TGI [20]: 4.03 µM
TGI [21]: > 6.17 µM
TGI [22]: 4.41 µM
TGI [23]: 3.95 µM
TGI [24]: > 10 µM
TGI [25]: 4.05 µM
TGI [26]: > 10 µM
TGI [27]: 3.46 µM
TGI [28]: > 10 µM
TGI [29]: > 10 µM
TGI [30]: 4.81 µM
TGI [31]: 2.67 µM
TGI [32]: 3.86 µM
TGI [33]: 3.64 µM
TGI [34]: 5.6 µM
TGI [35]: > 10 µM
TGI [36]: 2.68 µM
TGI [37]: 4.69 µM
TGI [38]: > 10 µM
TGI [39]: 4.03 µM
TGI [40]: 3.65 µM
TGI [41]: 3.11 µM
TGI [42]: > 10 µM
TGI [43]: > 10 µM
TGI [44]: 3.57 µM
TGI [45]: > 6.02 µM
TGI [46]: 3.32 µM
TGI [47]: > 4.96 µM
TGI [48]: > 10 µM
TGI [49]: 3.29 µM
TGI [50]: 3.31 µM
TGI [51]: 3.16 µM
TGI [52]: > 10 µM
TGI [53]: > 10 µM
TGI [54]: > 5.08 µM
TGI [55]: > 10 µM
TGI [56]: 4.79 µM
TGI [57]: > 6.31 µM
